The values below come from patent US20180186742A1, “PICOLINAMIDES AS FUNGICIDES” (Dow AgroSciences LLC, priority 2017, published 2018).

What all share (format): in vivo
One test has as its system Cercospora beticola. As to the kind of experiment: Leaf spot of sugar beets (CERCBE), disease control on sugar beet plants. As to conditions: 1DP test at 100 ppm, read-out: CERCBE disease control rating. The method, then: Technical grades of materials were dissolved in acetone, which were then mixed with nine volumes of water containing 110 ppm Triton X-100. The fungicide solutions were applied onto wheat seedlings using an automated booth sprayer to run-off. All sprayed plants were allowed to air dry prior to further handling. All fungicides were evaluated using the aforementioned method for their activity vs. all target diseases, unless stated otherwise. Wheat leaf blotch and brown rust activity were also evaluated using track spray applications, in which case the fungicides were formulated as EC formulations, containing 0.1% Trycol 5941 in the spray solutions. Sugar beet plants (variety HH88) were grown in soil-less Metro mix and trimmed regularly to maintain a uniform plant size prior to test. Plants were inoculated with a spore suspension 24 hr after fungicide treatments. Inoculated plants were kept in a dew chamber at 22° C. for 48 hr then incubated in a greenhouse set at 24° C. under a clear plastic hood with bottom ventilation until disease symptoms were fully expressed. Fungicide formulation, application and disease assessment on the sprayed leaves followed the procedures as described in the Example A.

The test system of the next test is Puccinia triticina. As to the kind of experiment: Wheat brown rust (PUCCRT), disease control on wheat seedlings. Conditions: low volume application at 121.5 g/H. In a few lines: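 Compounds in acetone, diluted with nine volumes of water containing 110 ppm Triton X-100, sprayed to run-off on first-leaf Yuma wheat seedlings; track-spray tests used EC formulations with 0.1% Trycol 5941. Puccinia triticina spores applied before or after treatment. Overnight dark dew room at 22° C, 100% humidity, then greenhouse at 24° C.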

A further test has as its system Alternaria solani. Briefly: Tomato early blight (ALTESO), disease control on tomato plants. As to conditions: 1DP test at 100 ppm, read-out: ALTESO disease control rating. As for the experimental part: Technical grades of materials were dissolved in acetone, which were then mixed with nine volumes of water containing 110 ppm Triton X-100. The fungicide solutions were applied onto wheat seedlings using an automated booth sprayer to run-off. All sprayed plants were allowed to air dry prior to further handling. All fungicides were evaluated using the aforementioned method for their activity vs. all target diseases, unless stated otherwise. Wheat leaf blotch and brown rust activity were also evaluated using track spray applications, in which case the fungicides were formulated as EC formulations, containing 0.1% Trycol 5941 in the spray solutions. Tomato plants (variety Outdoor Girl) were propagated in soil-less Metro mix, with each pot having one plant, and used when 12 to 14 days old. Test plants were inoculated with an aqueous spore suspension of Alternaria solani 24 hr after fungicide treatments. After inoculation the plants were kept in 100% relative humidity (one day in a dark dew chamber followed by two to three days in a lighted dew chamber at 20° C.) to permit spores to germinate and infect the leaf. The plants were then transferred to a growth room at 22° C. for disease to develop. Fungicide formulation, application and disease assessment on the sprayed leaves followed the procedures as described in the Example A.

In a further test the test system is Zymoseptoria tritici. Briefly: Leaf blotch of wheat (SEPTTR), disease control on wheat seedlings. As to conditions: low volume application at 121.5 g/H. An outline of the steps:
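Yuma wheat seedlings with the first leaf fully emerged were sprayed to run-off with compound in acetone plus nine volumes of water containing 110 ppm Triton X-100; track-spray tests used EC formulations with 0.1% Trycol 5941. Z. tritici inoculation came before or after treatment, followed by 100% RH dew periods and a 20 °C greenhouse. Percent control was calculated from severity versus untreated plants.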

[1] abbreviates: 24 h, 1 Day Protectant, read-out: PUCCRT disease control, 1DP, LV activity.
Where [2] appears, read: 72 h, 3 Day Curative, read-out: PUCCRT disease control, 3DC, LV activity.
[3] abbreviates: 24 h, 1 Day Protectant, read-out: SEPTTR disease control, 1DP, LV activity.
Setting [4] is: 72 h, 3 Day Curative, read-out: SEPTTR disease control, 3DC, LV activity.
[5] abbreviates: 24 h, 1 Day Protectant, wheat brown rust, read-out: PUCCRT 1DP disease control, LV activity.
The mark [6] stands for this setting: 72 h, 3 Day Curative, wheat brown rust, read-out: PUCCRT 3DC disease control, LV activity.
Where [7] appears, read: 24 h, 1 Day Protectant, wheat leaf blotch, read-out: SEPTTR 1DP disease control, LV activity.
Where [8] appears, read: 72 h, 3 Day Curative, wheat leaf blotch, read-out: SEPTTR 3DC disease control, LV activity.

Where two headings read alike, the source gives them in different places.

Regarding `COc1ccnc(C(=O)N[C@@H](C)C(=O)O[C@@H](C)[C@H](c2ccc(F)cc2C)C(C)C)c1OC(C)=O` [Compound 186], the pest or weed control at 100 ppm in the test on Cercospora beticola and with Alternaria solani was > 80% throughout. For the same molecule, the pest or weed control at 121.5 g/ha in the test on Puccinia triticina (setting [1]), in the test on Puccinia triticina (setting [2]), with Zymoseptoria tritici (setting [3]) and in the test with Zymoseptoria tritici (setting [4]) was > 80% each time.

As for `CCC(CC)[C@@H](c1ccc(F)cc1C)[C@H](C)OC(=O)[C@H](C)NC(=O)c1nccc(OC)c1OC(C)=O` [Compound 187], the pest or weed control at 100 ppm in the test on Cercospora beticola was > 80%; with Alternaria solani it was < 80%. In addition, the pest or weed control at 121.5 g/ha in the test with Puccinia triticina (setting [1]) was > 80%; in the test with Puccinia triticina (setting [2]) it was < 80%; in the test with Zymoseptoria tritici (setting [3]), > 80%; in the test with Zymoseptoria tritici (setting [4]) it was > 80%.

Turning to `COc1ccnc(C(=O)N[C@@H](C)C(=O)O[C@@H](C)[C@H](c2ccc(F)cc2C)C(C)C)c1OC(=O)C(C)C` [Compound 216], the pest or weed control at 100 ppm was > 80% in the test with Cercospora beticola and < 80% in the test on Alternaria solani. For the same molecule, the pest or weed control at 121.5 g/ha with Puccinia triticina (setting [1]), with Puccinia triticina (setting [2]), in the test on Zymoseptoria tritici (setting [3]) and in the test with Zymoseptoria tritici (setting [4]) was > 80% each time.

With `COc1ccnc2c(=O)n([C@@H](C)C(=O)O[C@@H](C)[C@H](c3ccc(F)cc3C)C(C)C)c(=O)oc12` [Compound 217], the pest or weed control at 100 ppm with Cercospora beticola is > 80%; in the test with Alternaria solani, < 80%. The pest or weed control at 121.5 g/ha in the test with Puccinia triticina (setting [1]), in the test with Puccinia triticina (setting [2]), in the test on Zymoseptoria tritici (setting [3]) and in the test with Zymoseptoria tritici (setting [4]) was > 80% throughout.

`COc1cc[n+]([O-])c(C(=O)N[C@@H](C)C(=O)O[C@@H](C)[C@H](c2ccc(F)cc2C)C(C)C)c1O` [Compound 218]: the figures for the pest or weed control at 100 ppm in the test with Cercospora beticola and in the test with Alternaria solani were > 80% and < 0%, respectively. The pest or weed control at 121.5 g/ha with Puccinia triticina (setting [1]) was > 80%; with Puccinia triticina (setting [2]), < 80%; in the test on Zymoseptoria tritici (setting [3]), > 80%; in the test on Zymoseptoria tritici (setting [4]), < 80%.

As for `COc1ccnc(C(=S)N[C@@H](C)C(=O)O[C@@H](C)[C@H](c2ccc(F)cc2C)C(C)C)c1OC(C)=O` [Compound 219], the pest or weed control at 100 ppm was > 80% in the test on Cercospora beticola and < 80% in the test with Alternaria solani. Moreover, the pest or weed control at 121.5 g/ha was > 80% in the test with Puccinia triticina (setting [1]), > 80% in the test on Puccinia triticina (setting [2]), < 80% in the test with Zymoseptoria tritici (setting [3]) and > 80% in the test with Zymoseptoria tritici (setting [4]).

Take `COCCC(=O)Oc1c(OC)ccnc1C(=O)N[C@@H](C)C(=O)O[C@@H](C)[C@H](c1ccc(F)cc1C)C(C)C` [Compound 220]: the pest or weed control at 100 ppm in the test with Cercospora beticola was > 80%; in the test on Alternaria solani, < 80%. Also, the pest or weed control at 121.5 g/ha with Puccinia triticina (setting [1]), with Puccinia triticina (setting [2]), with Zymoseptoria tritici (setting [3]) and in the test with Zymoseptoria tritici (setting [4]) was > 80% in each case.

On to `COc1ccnc(C(=O)N[C@@H](C)C(=O)O[C@@H](C)[C@H](c2ccc(F)cc2C)C(C)C)c1OC(=O)C1CCCC1` [Compound 354], for which the pest or weed control at 100 ppm in the test with Cercospora beticola is > 80%; in the test with Alternaria solani it was < 80%. The pest or weed control at 121.5 g/ha in the test on Puccinia triticina (setting [1]) was > 80%; in the test on Puccinia triticina (setting [2]), < 80%; in the test with Zymoseptoria tritici (setting [3]), > 80%; in the test on Zymoseptoria tritici (setting [4]) it was > 80%.

Turning to `CCC(C)C(=O)Oc1c(OC)ccnc1C(=O)N[C@@H](C)C(=O)O[C@@H](C)[C@H](c1ccc(F)cc1C)C(C)C` (stereo partly shown) [Compound 355], the pest or weed control at 100 ppm in the test on Cercospora beticola and with Alternaria solani was > 80% throughout. Further, the pest or weed control at 121.5 g/ha in the test on Puccinia triticina (setting [1]) is > 80%; with Puccinia triticina (setting [2]) it was < 80%; with Zymoseptoria tritici (setting [3]), > 80%; in the test with Zymoseptoria tritici (setting [4]), > 80%.

Regarding `COc1ccnc(C(=O)N[C@@H](C)C(=O)O[C@@H](C)[C@H](c2ccc(F)cc2C)C(C)C)c1OC(=O)CC(C)C` [Compound 356], the pest or weed control at 100 ppm in the test on Cercospora beticola and in the test on Alternaria solani was > 80% throughout. For the same molecule, the pest or weed control at 121.5 g/ha in the test with Puccinia triticina (setting [1]) was > 80%; with Puccinia triticina (setting [2]) it was < 80%; in the test on Zymoseptoria tritici (setting [3]), > 80%; in the test with Zymoseptoria tritici (setting [4]), > 80%.

On to `CCC(=O)Oc1c(OC)ccnc1C(=O)N[C@@H](C)C(=O)O[C@@H](C)[C@H](c1ccc(F)cc1C)C(C)C` [Compound 357], for which the pest or weed control at 100 ppm was > 80% with Cercospora beticola and < 80% with Alternaria solani. Further, the pest or weed control at 121.5 g/ha with Puccinia triticina (setting [1]), with Puccinia triticina (setting [2]), in the test with Zymoseptoria tritici (setting [3]) and with Zymoseptoria tritici (setting [4]) was > 80% each time.

In the case of `COc1ccnc(C(=O)N[C@@H](C)C(=O)O[C@@H](C)[C@H](c2cccc(F)c2C)C(C)C)c1OC(C)=O` [Compound 359], the pest or weed control at 100 ppm in the test with Cercospora beticola was > 80%; in the test with Alternaria solani, < 80%. In addition, the pest or weed control at 121.5 g/ha in the test with Puccinia triticina (setting [1]) is > 80%; in the test with Puccinia triticina (setting [2]), > 80%; in the test on Zymoseptoria tritici (setting [3]), < 80%; with Zymoseptoria tritici (setting [4]), > 80%.

`COc1ccnc(C(=O)N[C@@H](C)C(=O)O[C@@H](C)[C@H](c2cccc(C)c2C)C(C)C)c1OC(C)=O` [Compound 363]: the pest or weed control at 100 ppm was > 80% with Cercospora beticola and < 0% in the test with Alternaria solani. Besides, the pest or weed control at 121.5 g/ha is > 80% in the test with Puccinia triticina (setting [1]), > 80% in the test on Puccinia triticina (setting [2]), < 80% in the test on Zymoseptoria tritici (setting [3]) and < 80% with Zymoseptoria tritici (setting [4]).

`COc1ccnc(C(=O)N[C@@H](C)C(=O)O[C@@H](C)[C@H](c2ccccc2C)C(C)C)c1OC(C)=O` [Compound 364]: the pest or weed control at 100 ppm with Cercospora beticola is > 80%; in the test with Alternaria solani it was < 80%. Besides, the pest or weed control at 121.5 g/ha in the test on Puccinia triticina (setting [5]) was > 80%; in the test on Puccinia triticina (setting [6]) it was < 80%; in the test on Zymoseptoria tritici (setting [7]), < 80%; in the test on Zymoseptoria tritici (setting [8]), < 80%.

As for `CCOC(=O)Oc1c(OC)ccnc1C(=O)N(C(=O)OCC)[C@@H](C)C(=O)O[C@@H](C)[C@H](c1ccc(F)cc1C)C(C)C` [Compound 371], the values for the pest or weed control at 100 ppm with Cercospora beticola and in the test with Alternaria solani were > 80% and < 80%, respectively.

`CCOC(=O)Oc1c(OC)ccnc1C(=O)N[C@@H](C)C(=O)O[C@@H](C)[C@H](c1ccc(F)cc1C)C(C)C` [Compound 372]: the pest or weed control at 100 ppm with Cercospora beticola and in the test on Alternaria solani was > 80% each time.

Consider `COc1ccnc(C(=O)N[C@@H](C)C(=O)O[C@@H](C)[C@H](c2ccc(F)cc2C)C(C)C)c1OC(=O)OC(C)C` [Compound 373], for which the pest or weed control at 100 ppm in the test on Cercospora beticola is > 80%; in the test on Alternaria solani it was < 80%. The pest or weed control at 121.5 g/ha was > 80% in the test with Puccinia triticina (setting [5]), < 80% in the test on Puccinia triticina (setting [6]), > 80% in the test on Zymoseptoria tritici (setting [7]) and > 80% in the test on Zymoseptoria tritici (setting [8]).

As for `COc1ccnc(C(=O)N[C@@H](C)C(=O)O[C@@H](C)[C@H](c2ccc(F)cc2C)C(C)C)c1OC(=O)C(C)(C)C` [Compound 374], the pest or weed control at 100 ppm in the test on Cercospora beticola is > 80%; in the test with Alternaria solani, < 80%. Moreover, the pest or weed control at 121.5 g/ha in the test with Puccinia triticina (setting [5]) is > 80%; in the test on Puccinia triticina (setting [6]) it was < 80%; in the test on Zymoseptoria tritici (setting [7]), > 80%; in the test on Zymoseptoria tritici (setting [8]) it was > 80%.
